Publication PMC8134483 (Scientific Reports, 2021)
Like-named read-outs stand apart in the source and are kept apart here.

Experiments:
hCB2R [1] = target: T1, hCB2R (Homo sapiens, UniProt P34972); test: [^3H]CP55,940 competition (radioligand displacement) binding to CB2R; conditions: for CB2R [^3H]CP55,940 Emin: bottom of the concentration–response curve, mean ± SEM
T1 construct: host or cells: CHO-K1 (PathHunter)

hCB2R [2] = target: T1, hCB2R; test: CB2R bias analysis (operational model, cAMP inhibition vs βarrestin2); format: cell-based; conditions: CP55,940 as reference agonist; >0 cAMP bias, <0 βarrestin2 bias
Procedure: (§1) Estimates of Ki, EC50, Emin, and Emax were determined using non-linear regression with variable slope (four parameters) (GraphPad, Prism, v. 8.0). […] One-way analysis of variance (ANOVA), followed by Tukey’s post-hoc test, was used for statistical analyses (p < 0.05 determined to be significant); and Bartlett’s test was used to confirm homogeneity of variance (GraphPad).

hCB2R [3] = target: T1, hCB2R; test: PathHunter βarrestin2 recruitment, CB2R; format: cell-based; conditions: for βarrestin2 recruitment to CB2R, activity in words: relative to CP55,940
male C57Bl/6 mice [4] = test: Elevated plus maze (EPM); format: in vivo; conditions: 1.0 mg/kg i.p., 30 min after treatment, 5 min trial; for EPM total arm entries: vs vehicle
Procedure: (§2) Adult male C57BL/6 mice aged 6–10 weeks (mean weight 24 ± 0.5 g) were purchased from Charles River Labs (Senneville, QC). Animals were group housed (three per cage) with ad libitum access to food, water, and environmental enrichment and maintained on a 12 h light/dark cycle. Mice were randomly assigned to receive i.p. injections of vehicle (1:1:18 ethanol:emulphor:saline) or 0.1–10 mg/kg SCRA (n ≥ 4 per group). All protocols have been described previously and were in accordance with the guidelines detailed by the Canadian Council on Animal Care and approved by the Animal Research Ethics Board and the Scientific Merit Review Committee for Animal Behaviour at the University of Saskatchewan. The following steps were taken to ensure our study was in keeping with the ARRIVE guidelines: (1) power analyses were conducted to determine the minimum number of animals required for the study; (2) animals were purchased—rather than bred—to limit animal waste; and (3) all assessments of animal behaviour were made by individuals blinded to the treatment group,[57].
EPM was conducted according to methods adapted from Marks et al.. The EPM was built from a plywood base painted blue with blue corrugated plastic floor and walls. The floor of the maze was composed of perpendicular interlocking arms (110 cm long × 10 cm wide) with two arms having 45 cm walls (closed arms) and two arms having no walls and a 0.5 cm edge (open arms), all elevated 45 cm from the ground. Trials began with the mouse in the central zone facing an open arm. Trials lasted 5 min and began 30 min after SCRA treatment. An arm entry was considered to be all four limbs leaving the central zone. Arm entries and the percent time spent in open versus closed arms were recorded by an observer blinded to the treatment group. Less time in the open arms and more time in the closed arms was used as a model of anxiogenic behaviour.

hCB2R [5] = target: T1, hCB2R; test: HitHunter inhibition of FSK-stimulated cAMP, CB2R; format: cell-based
hCB1R [6] = target: T2, hCB1R (Homo sapiens, UniProt P21554); test: biochemical; format: binding; conditions: for CB1R versus CB2R selectivity, receptor affinity: CB1R vs CB2R [^3H]CP55,940 binding; for CB1R [^3H]CP55,940 Emin: bottom of the concentration–response curve, mean ± SEM
T2 construct: expressed in transfected cells; host or cells: CHO-K1

hCB1R [7] = target: T2, hCB1R; test: cell-based; format: cell-based; conditions: for EC50: CHO hCB1R, 10 µM FSK, 90 min, value with 95% CI, read-out: CB1R cAMP Inhibition EC50; for Emax: read-out: CB1R cAMP Inhibition Emax; for CB1R versus CB2R selectivity, cAMP inhibition potency: CB1R vs CB2R
hCB1R [8] = target: T2, hCB1R; test: cell-based; format: cell-based; conditions: for CB1R versus CB2R selectivity, βarrestin2 recruitment: CB1R vs CB2R; for EC50: CHO hCB1R, 90 min, value with 95% CI, read-out: CB1R βarrestin2 recruitment EC50; for Emax: read-out: CB1R βarrestin2 recruitment Emax; for βarrestin2 recruitment to CB1R, activity in words: relative to CP55940
hCB1R [9] = target: T2, hCB1R; test: CB1R bias analysis (operational model, cAMP inhibition vs βarrestin2); format: cell-based; conditions: for CB1R bias between cAMP inhibition and βarrestin2 recruitment, ∆∆LogR (cAMP—βarr2), in words: CP55,940 as reference agonist, >0 cAMP bias, <0 βarrestin2 bias
Procedure: as §1

male C57Bl/6 mice [10] = test: Catalepsy, ring holding assay; format: in vivo; conditions: 0.1–10 mg/kg i.p.; 5 min; % MPE 60 s
Procedure: as §2, with “The following steps were taken to ensure our study was in keeping with the ARRIVE guidelines: (1) power analyses were conducted to determine the minimum number of animals required for the study; (2) animals were purchased—rather than bred—to limit animal waste; and (3) all assessments of animal behaviour were made by individuals blinded to the treatment group,[57].” left out
(§3) Modified tetrad testing (catalepsy, body temperature, tail flick assay) was conducted according to previously described methods, which are summarized briefly here. […] Catalepsy was assessed in the ring holding assay 5 min following injection with mouse forepaws clasped to a 5 mm ring positioned 5 cm above the surface of the testing space. The length of time the ring was held was recorded (s) to a maximum time of 60 s (i.e. MPE = 60 s). Internal body temperature was measured 15 min after injection. Anti-nociception was determined by assessing tail flick latency 20 min after injection. […]

male C57Bl/6 mice [11] = test: Anti-nociception, tail flick assay; format: in vivo; conditions: 0.1–10 mg/kg i.p.; 20 min; 52 °C; % MPE 20 s
Procedure: as §2, with “The following steps were taken to ensure our study was in keeping with the ARRIVE guidelines: (1) power analyses were conducted to determine the minimum number of animals required for the study; (2) animals were purchased—rather than bred—to limit animal waste; and (3) all assessments of animal behaviour were made by individuals blinded to the treatment group,[57].” left out
as §3

male C57Bl/6 mice [12] = test: Internal body temperature; format: in vivo; conditions: 0.1–10 mg/kg i.p.; 15 min
Procedure: as §2, with “The following steps were taken to ensure our study was in keeping with the ARRIVE guidelines: (1) power analyses were conducted to determine the minimum number of animals required for the study; (2) animals were purchased—rather than bred—to limit animal waste; and (3) all assessments of animal behaviour were made by individuals blinded to the treatment group,[57].” left out
as §3

T2 sequence (P21554 whole entry): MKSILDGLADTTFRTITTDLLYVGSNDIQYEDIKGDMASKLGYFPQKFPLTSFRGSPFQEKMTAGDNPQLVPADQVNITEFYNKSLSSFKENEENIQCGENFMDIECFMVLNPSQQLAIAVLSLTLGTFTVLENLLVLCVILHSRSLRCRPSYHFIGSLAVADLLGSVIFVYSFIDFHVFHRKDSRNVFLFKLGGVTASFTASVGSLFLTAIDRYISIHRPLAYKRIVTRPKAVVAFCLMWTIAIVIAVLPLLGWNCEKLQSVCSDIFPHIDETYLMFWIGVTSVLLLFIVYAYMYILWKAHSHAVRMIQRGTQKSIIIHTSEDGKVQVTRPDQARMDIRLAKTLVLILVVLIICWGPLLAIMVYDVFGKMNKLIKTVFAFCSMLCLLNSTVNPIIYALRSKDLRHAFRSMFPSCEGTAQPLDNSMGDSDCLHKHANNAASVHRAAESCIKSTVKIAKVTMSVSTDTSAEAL
T1 sequence (P34972 whole entry): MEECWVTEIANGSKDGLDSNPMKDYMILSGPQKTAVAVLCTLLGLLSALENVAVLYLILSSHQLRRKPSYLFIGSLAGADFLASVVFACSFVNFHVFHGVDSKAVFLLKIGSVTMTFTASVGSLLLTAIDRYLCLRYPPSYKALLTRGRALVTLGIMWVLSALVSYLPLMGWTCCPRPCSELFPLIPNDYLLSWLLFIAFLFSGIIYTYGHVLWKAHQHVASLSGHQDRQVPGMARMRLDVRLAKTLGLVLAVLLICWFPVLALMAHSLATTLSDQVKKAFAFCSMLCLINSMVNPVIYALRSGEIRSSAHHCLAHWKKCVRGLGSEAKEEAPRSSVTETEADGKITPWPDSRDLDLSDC

Compound	CB2R [^3H]CP55,940 Emin (hCB2R [1]) [%]	CB2R bias between cAMP inhibition and βarrestin2 recruitment, ∆∆LogR (cAMP—βarr2), in words (hCB2R [2])	Emax (hCB2R [3]) [%]	βarrestin2 recruitment to CB2R, activity in words (hCB2R [3])	EPM open arm entries (male C57Bl/6 mice [4])	EPM time in the open arms (male C57Bl/6 mice [4])	EPM total arm entries (male C57Bl/6 mice [4])	Emax (hCB2R [5]) [%]	Ki (hCB2R [1]) [nM]	EC50 (hCB2R [3]) [nM]	Ki (hCB1R [6]) [nM]	CB1R [^3H]CP55,940 Emin (hCB1R [6]) [%]	EC50 (hCB1R [7]) [nM]	Emax (hCB1R [7]) [%]	CB1R versus CB2R selectivity, βarrestin2 recruitment (hCB1R [8])	EC50 (hCB1R [8]) [nM]	Emax (hCB1R [8]) [%]	βarrestin2 recruitment to CB1R, activity in words (hCB1R [8])	CB1R bias between cAMP inhibition and βarrestin2 recruitment, ∆∆LogR (cAMP—βarr2), in words (hCB1R [9])	EC50 (hCB2R [5]) [nM]	further results
CCCCCc1cc(O)c2c(c1)OC(C)(C)[C@@H]1CCC(C)=C[C@@H]21 [∆^9-THC, ∆^9-tetrahydrocannabinol, reference compound]	65 ± 7.6	did not display a bias	58 ± 1.1	significantly lower efficacy, but similar potency	increased open arm entry	greater amount of time spent in the open arms	did not change total arm entries	48 ± 3.8	–	–	–	–	–	–	–	–	–	–	–	–	CB2R-dependent inhibition of FSK-stimulated cAMP, activity in words (hCB2R [5]; relative to CP55,940): significantly lower efficacy
CCCC(F)Cn1nc(C(=O)NC(C(N)=O)C(C)C)c2ccccc21 (stereo not drawn) [AB-PINACA N-(2-fluoropentyl) isomer]	2.8 ± 8.1	significant bias toward the recruitment of βarrestin2	140 ± 12	greater potency and produced supramaximal EMax responses	–	–	–	91 ± 3.2	270	9.4	1.6	76 ± 6.2	7.3	75 ± 7.5	more potent for CB2R-dependent recruitment of βarrestin2 than CB1R-dependent recruitment of βarrestin2	240	204 ± 10	greater potency and produced supramaximal EMax responses	did not display a bias	10	Affinity for CB2R compared with CP55,940, in words (hCB2R [1]): significantly less affinity; Competition of 1.0 nM [^3H]CP55,940 from CB2R, in words (hCB2R [1]): completely displaced; Competition of 1.0 nM [^3H]CP55,940 from CB2R, in words (hCB2R [1]; listed as AB PINACA N-(2-fluoropentyl) isomer): fully competed; Competition of 1.0 nM [^3H]CP55,940 from CB1R, in words (hCB1R [6]): only partially competing; CB1R versus CB2R selectivity, receptor affinity (hCB1R [6]): greater affinity at CB1R relative to CB2R; CB1R-dependent inhibition of FSK-stimulated cAMP, activity in words (hCB1R [7]; relative to CP55940): partial agonist
CC(C)CCn1cc(C(=O)c2ccc3ccccc3c2)c2ccccc21 [JWH 018 2'-naphthyl-N-(3-methylbutyl) isomer]	54 ± 3.5	obligate cAMP-biased ligands	6.1 ± 1.3	Inactive at βarrestin2	increased open arm entry	greater amount of time spent in the open arms	did not change total arm entries	110 ± 9.2	7.5	> 10000	0.93	9.6 ± 2.7	98	80 ± 9.1	–	> 10000	4.9 ± 0.51	Inactive at βarrestin2	–	0.52	Catalepsy response (male C57Bl/6 mice [10]): partial agonist; βarrestin2 recruitment to CB2R, activity in words (hCB2R [3]; listed as JWH 018 2′-napthyl-N-(3-methylbutyl) isomer): inactive in βarrestin2; Anti-nociceptive response, tail flick (male C57Bl/6 mice [11]): full agonist; CB1R versus CB2R selectivity, receptor affinity (hCB1R [6]): greater affinity at CB1R relative to CB2R; CB1R versus CB2R selectivity, cAMP inhibition potency (hCB1R [7]): more potent at CB2R relative to CB1R; Observed CB1R bias in cell culture (hCB1R [9]; cAMP inhibition vs βarrestin2): G protein; Body temperature (hypothermia) response (male C57Bl/6 mice [12]): did not change body temperature
O=C(Oc1cccc2cccnc12)c1nn(CCCCCF)c2ccccc12 [5-fluoro NPB-22]	34 ± 8.1	did not display a bias	120 ± 3.7	not different with regard to potency relative to the reference agonist CP55,940, and produced supramaximal EMax responses	–	–	–	110 ± 7.6	4.3	280	47	2.3 ± 7.8	53	96 ± 7	–	830	210 ± 12	equipotent, but produced supramaximal EMax responses	significant bias toward the recruitment of βarrestin2	3.2	–
CCC(Cl)CCn1nc(C(=O)NC(C(N)=O)C(C)C)c2ccccc21 (centres unmarked) [3-chloro AB-PINACA]	84 ± 4.3	significant bias toward the recruitment of βarrestin2	130 ± 4.5	greater potency and produced supramaximal EMax responses	–	–	–	87 ± 15	52	8.8	170	65 ± 5.1	0.04	94 ± 2.8	more potent for CB2R-dependent recruitment of βarrestin2 than CB1R-dependent recruitment of βarrestin2	140	340 ± 11	greater potency and produced supramaximal EMax responses	did not display a bias	19	CB1R versus CB2R selectivity, cAMP inhibition potency (hCB1R [7]): more potent at CB1R relative to CB2R
CC(C)C(NC(=O)c1nn(Cc2ccccc2F)c2ccccc12)C(N)=O (centres unmarked) [ortho-AB-FUBINACA]	17 ± 1.2	significant bias toward the inhibition of cAMP	120 ± 3.1	not different with regard to potency relative to the reference agonist CP55,940, and produced supramaximal EMax responses	–	–	–	110 ± 6.7	0.93	140	2.7	16 ± 5.4	3.6	83 ± 8.4	more potent for CB2R-dependent recruitment of βarrestin2 than CB1R-dependent recruitment of βarrestin2	810	280 ± 11	equipotent, but produced supramaximal EMax responses	significant bias toward the recruitment of βarrestin2	0.06	Affinity for CB2R compared with CP55,940, in words (hCB2R [1]): significantly greater affinity; Competition of 1.0 nM [^3H]CP55,940 from CB2R, in words (hCB2R [1]): completely displaced
